Read-outs that look alike come from different tables or passages of the source.
Experiments:
[1] = Retention and release of dyes from PE-PEG matrix into phosphate buffered saline; type: physicochemical; settings: dye only, tube 10
Description: Method: C50 PE-PEG16 was blended with PLURONIC™ L44 in a ratio of 7:3 w/w as described in Example 3. Rose Bengal (100 mg) and SR24 (100 mg) were mixed with 5 g aliquots of molten PE-PEG and PE-PEG/poloxamer blend, and maintained at 110° C. with mixing until the dye was fully dissolved.
Ten small (6 ml) glass test tubes were prepared as shown in Tables 5-6, Tubes 4-7 contained 0.5 g of the PE-PEG and PE-PEG/polymer samples mixed with dye, tubes 2, 3, 8 and 9 contained 0.5 g PE-PEG and PE-PEG/polymer samples (without dye) and 10 mg of dye added separately (after the PE-PEG or blend had solidified), tubes 1 and 10 contained only the dye, as controls.
Each glass test tube was affixed to the inside of a 50 ml polypropylene centrifuge tube with a silicone adhesive. Fifty ml of phosphate buffered saline was added to each of the tubes, and they were rocked gently for six days. At appropriate time points, the concentration of dye in the buffer was measured using a spectrophotometer. The SR24 dye was measured at 516 nm, the Rose Bengal concentration was estimated from the maximal absorption λmax from 540 nm to 560 nm.

[2] = in words; cited from earlier work

For `Cc1ccccc1/N=N/c1ccc(/N=N/c2c(O)ccc3ccccc23)c(C)c1` [SR24, Solvent Red 24], which solubility in water [1] is on record?
The solubility in water was “zero solubility”.

What about the solubility in water [2] of the same compound?
The solubility in water was “negligible solubility”.

From patent US8455000B2, “Resorbable polymer compositions for use in medicine, dentistry, and surgery” (Syncera Inc., priority 2006, dated 2013)
